Measured values published in patent publication US20150185215A1, “Cell-Based Assays For Post-Translational Enzyme Activity” (Cell Assay Innovations, Inc., priority 2012, published 2015).

Molecular target: lck (Homo sapiens, UniProt P06239)
Assay: cell-based

lck, sequence (P06239 whole entry): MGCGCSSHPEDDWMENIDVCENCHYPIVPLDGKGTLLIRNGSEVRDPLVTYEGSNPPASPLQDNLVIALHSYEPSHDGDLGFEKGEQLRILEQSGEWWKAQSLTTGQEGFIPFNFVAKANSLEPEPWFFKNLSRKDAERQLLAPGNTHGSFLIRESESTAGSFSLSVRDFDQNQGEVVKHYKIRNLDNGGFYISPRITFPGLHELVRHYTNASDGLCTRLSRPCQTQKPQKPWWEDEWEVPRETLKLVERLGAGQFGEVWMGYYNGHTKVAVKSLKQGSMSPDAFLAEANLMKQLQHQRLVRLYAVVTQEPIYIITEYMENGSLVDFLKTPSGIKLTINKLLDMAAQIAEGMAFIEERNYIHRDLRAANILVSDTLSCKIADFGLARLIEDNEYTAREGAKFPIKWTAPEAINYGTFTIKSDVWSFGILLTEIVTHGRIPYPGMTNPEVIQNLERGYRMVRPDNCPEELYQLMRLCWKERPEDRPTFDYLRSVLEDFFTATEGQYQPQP

SMILES: N#CC(=C(/N)Sc1ccccc1N)/C(C#N)=C(\N)Sc1ccccc1N [U0126]
- IC50: > 30 µM
